Assay results from US20090221518A1, “Compositions and Methods for Treatment of Exudative Serous Effusion” (Anaborex, Inc., priority 2007, published 2009).
Marks after values point to notes of the source that are not given here.

Experiments:
lung cancer = lung cancer patients; cited from earlier work
[1] = test system: Yoshida AH-130 ascites hepatoma (AH) cells; test: AH cell count and viability in recovered ascites fluid, rat AH model; format: in vivo, female Wistar rats
Method: (§1) Following the method of Busquets et al., female Wistar rats were inoculated (Day 0) intraperitoneally (ip) with 2×10^7 cells/animal of Yoshida AH-130 ascites hepatoma (AH) cells. Control animals were inoculated with an equivalent amount of sterile saline solution. […] The roxithromycin dosing solution was 2 mg/mL in 20 mM citrate, pH of 5.5, and 4.5% mannitol in water.
For the cell count measurements in ascites, the cells were counted directly from the ascites collected at necropsy from N 4 animals in […]. A […] aliquot was taken from each sample and diluted 1:500 with trypan blue. The sample was then placed onto a hemacytometer and both sides counted to determine the total number of viable and non-viable AH cells.
In Experiment 2, the single treatment group received 50 mg/kg roxithromycin (ip). Ascites volumes, serum albumin concentrations, and CRP levels in dissected gastrocnemius muscle were determined. AH cell counts and cell viability (%) were determined in recovered ascites fluid.

C-reactive protein (CRP) [2] = test: C-reactive protein in gastrocnemius muscle lysate (Quantikine Rat CRP Immunoassay Kit), rat AH model; format: in vivo, female Wistar rats; details: Experiment 2, 50 mg/kg ip
Method: Following the method of Busquets et al., female Wistar rats were inoculated (Day 0) intraperitoneally (ip) with 2×10^7 cells/animal of Yoshida AH-130 ascites hepatoma (AH) cells. Control animals were inoculated with an equivalent amount of sterile saline solution. […] The roxithromycin dosing solution was 2 mg/mL in 20 mM citrate, pH of 5.5, and 4.5% mannitol in water. Serum samples were collected prior to sacrifice on D5 and assayed for serum albumin concentration. After determination of gastrocnemius muscle wet weight, some gastrocnemius samples were lysed and determinations made of C-reactive protein (CRP, using Quantikine Rat CRP Immunoassay Kit) and total protein. A commercial immunoassay kit (Quantikine Rat VEGF Immunoassay, R & D Systems PN RRV00) was used to determine Vascular Endothelial Growth Factor (VEGF) concentration in plasma and ascites. Similarly, CRP concentration in plasma and ascites was determined using a commercial kit (Rat High-Sensitive CRP ELISA Method, Kamiya Biochemical PN KT099). In Experiment 2, the single treatment group received 50 mg/kg roxithromycin (ip). Ascites volumes, serum albumin concentrations, and CRP levels in dissected gastrocnemius muscle were determined. AH cell counts and cell viability (%) were determined in recovered ascites fluid.

[3] = test system: Vascular Endothelial Growth Factor (VEGF); test: VEGF concentration in plasma and ascites (Quantikine Rat VEGF Immunoassay), rat AH model; format: in vivo, female Wistar rats; details: Experiment 3; for Ascites [VEGF] Mean: ascites fluid; for Ascites VEGF pg/rat Mean: concentration times ascites volume
Method: (§2) Following the method of Busquets et al., female Wistar rats were inoculated (Day 0) intraperitoneally (ip) with 2×10^7 cells/animal of Yoshida AH-130 ascites hepatoma (AH) cells. Control animals were inoculated with an equivalent amount of sterile saline solution. […] The roxithromycin dosing solution was 2 mg/mL in 20 mM citrate, pH of 5.5, and 4.5% mannitol in water. Serum samples were collected prior to sacrifice on D5 and assayed for serum albumin concentration. After determination of gastrocnemius muscle wet weight, some gastrocnemius samples were lysed and determinations made of C-reactive protein (CRP, using Quantikine Rat CRP Immunoassay Kit) and total protein. A commercial immunoassay kit (Quantikine Rat VEGF Immunoassay, R & D Systems PN RRV00) was used to determine Vascular Endothelial Growth Factor (VEGF) concentration in plasma and ascites. Similarly, CRP concentration in plasma and ascites was determined using a commercial kit (Rat High-Sensitive CRP ELISA Method, Kamiya Biochemical PN KT099). In Experiment 3, one treatment group received 40 mg/kg (ip) roxithromycin, and a second treatment group received 40 mg/kg (po). Ascites volumes, plasma CRP and VEGF concentrations, and ascites CRP and VEGF concentrations were determined.

serum albumin = test: Serum albumin concentration, rat AH model; format: in vivo, female Wistar rats; details: Experiment 2; 50 mg/kg ip
Method: as §1, with “water. […] In Experiment 2, the single treatment group received 50 mg/kg roxithromycin (ip). Ascites volumes, serum albumin concentrations, and CRP levels in dissected gastrocnemius muscle were determined. AH cell counts and cell viability (%) were determined in recovered ascites fluid.” for “water.”

C-reactive protein (CRP) [4] = test: CRP concentration in plasma and ascites (Rat High-Sensitive CRP ELISA), rat AH model; format: in vivo, female Wistar rats; details: Experiment 3; for Ascites [CRP] Mean: ascites fluid; for Ascites CRP ng/rat Mean: concentration times ascites volume; for Plasma [CRP] Mean: AH-inoculated
Method: as §2

[5] = macrolide given to rats prior to carrageenan stimulation; cited from earlier work
[6] = test system: Yoshida AH-130 ascites hepatoma (AH) cells; test: Ascites volume in rat AH (Yoshida AH-130 ascites hepatoma) model; format: in vivo, female Wistar rats; details: for Ascites (mL) Mean: AH-inoculated rats
Method: Following the method of Busquets et al., female Wistar rats were inoculated (Day 0) intraperitoneally (ip) with 2×10^7 cells/animal of Yoshida AH-130 ascites hepatoma (AH) cells. Control animals were inoculated with an equivalent amount of sterile saline solution. […] The roxithromycin dosing solution was 2 mg/mL in 20 mM citrate, pH of 5.5, and 4.5% mannitol in water. The animals were sacrificed on Day 5. Upon sacrifice ascites fluid was withdrawn by syringe and the volume determined. Three different experiments were performed. In each experiment one control group received an ascites hepatoma (AH) inoculation with vehicle treatment, and a second control group received saline inoculation with vehicle treatment. In Experiment 1, the single treatment group received 5 mg/kg roxithromycin (ip). Ascites volumes were determined. In Experiment 2, the single treatment group received 50 mg/kg roxithromycin (ip). Ascites volumes, serum albumin concentrations, and CRP levels in dissected gastrocnemius muscle were determined. AH cell counts and cell viability (%) were determined in recovered ascites fluid. In Experiment 3, one treatment group received 40 mg/kg (ip) roxithromycin, and a second treatment group received 40 mg/kg (po). Ascites volumes, plasma CRP and VEGF concentrations, and ascites CRP and VEGF concentrations were determined.

[7] = Experiment 2, ascites, AH-inoculated, 50 mg/kg ip, N = 4

SMILES: CC[C@H]1OC(=O)[C@H](C)[C@@H](O[C@H]2C[C@@](C)(OC)[C@@H](O)[C@H](C)O2)[C@H](C)[C@@H](O[C@@H]2O[C@H](C)C[C@H](N(C)C)[C@H]2O)[C@](C)(OC)C[C@@H](C)C(=O)[C@H](C)[C@@H](O)[C@]1(C)O [clarithromycin]
- IL6 levels (lung cancer): reduced
- Median survival time (lung cancer): significantly increased

SMILES: CC[C@H]1OC(=O)[C@H](C)[C@@H](O[C@H]2C[C@@](C)(OC)[C@@H](O)[C@H](C)O2)[C@H](C)[C@@H](O[C@@H]2O[C@H](C)C[C@H](N(C)C)[C@H]2O)[C@](C)(O)C[C@@H](C)/C(=N\OCOCCOC)[C@H](C)[C@@H](O)[C@]1(C)O [roxithromycin]
- AH cell densities or cell counts versus vehicle control ([1]; Experiment 2, 50 mg/kg ip): did not reduce
- Viable Cells % Mean ([1]; Experiment 2, ascites AH cells, trypan blue, 50 mg/kg ip, N = 4): 99%
- Cells/mL × 10^6 Mean [1, 7]: 338 Cells/mL × 10^6
- Total Cells # × 10^6 Mean [1, 7]: 2,077 × 10^6
- Cytostatic or cytotoxic activity toward ascites hepatoma cells ([1]; rat AH model, conclusion from cell counts and viability): does not appear to be cytostatic or cytotoxic
- Muscle CRP levels versus AH-inoculated vehicle animals (C-reactive protein (CRP) [2]): did significantly reduce
- Muscle CRP Mean (C-reactive protein (CRP) [2]; gastrocnemius muscle, AH-inoculated rats): 28.5 ng/mg total protein
- Ascites [VEGF] Mean ([3]; 40 mg/kg i.p. qd (Group 9)): 4,590 pg/mL
- Ascites [VEGF] Mean ([3]; 40 mg/kg oral, bid (Group 10)): 4,040 pg/mL
- Ascites VEGF pg/rat Mean ([3]; 40 mg/kg i.p. qd (Group 9)): 10,200 pg/rat
- Ascites VEGF pg/rat Mean ([3]; 40 mg/kg oral, bid (Group 10)): 9,900 pg/rat
- Plasma VEGF concentration ([3]; plasma, 40 mg/kg ip qd or oral bid): below the immunoassay method quantitation limit
- Influence on VEGF levels ([3]; rat AH model): does not influence VEGF levels
- Serum albumin levels versus AH-inoculated vehicle animals (serum albumin): did not significantly change
- Total CRP per rat in ascites versus vehicle control (C-reactive protein (CRP) [4]; 40 mg/kg given either orally or intraperitoneally): statistically significantly reduced
- Plasma CRP concentration versus vehicle-treated animals (C-reactive protein (CRP) [4]; 40 mg/kg ip): lowered plasma CRP concentration compared with the vehicle-treated animals, but the differences were not statistically significant
- Plasma CRP concentration versus vehicle-treated animals (C-reactive protein (CRP) [4]; 40 mg/kg oral): very significantly lowered
- Ascites [CRP] Mean (C-reactive protein (CRP) [4]; 40 mg/kg i.p. qd (Group 9)): 230 ng/mL
- Ascites [CRP] Mean (C-reactive protein (CRP) [4]; 40 mg/kg oral, bid (Group 10)): 287 ng/mL
- Ascites CRP ng/rat Mean (C-reactive protein (CRP) [4]; 40 mg/kg i.p. qd (Group 9)): 530 ng/rat
- Ascites CRP ng/rat Mean (C-reactive protein (CRP) [4]; 40 mg/kg oral, bid (Group 10)): 730 ng/rat
- Plasma [CRP] Mean (C-reactive protein (CRP) [4]; 40 mg/kg i.p. qd): 709 µg/mL
- Plasma [CRP] Mean (C-reactive protein (CRP) [4]; 40 mg/kg oral, bid): 593 µg/mL
- Exudate accumulation in rat paws [5]: limit exudate accumulation
- Accumulated ascites fluid versus vehicle control ([6]; Experiment 1, 5 mg/kg (ip), difference not statistically significant): lowered the accumulated ascites fluid
- Ascites (mL) Mean ([6]; Experiment 1, 5 mg/kg ip qd from Day 1, sacrifice Day 5): 3.48** mL
- Accumulated ascites volume versus vehicle control ([6]; Experiment 2, 50 mg/kg ip): very significantly reduced
- Ascites (mL) Mean ([6]; Experiment 2, 50 mg/kg ip qd, Day 5): 2.92 mL
- Accumulated ascites volume versus vehicle control ([6]; Experiment 3, 40 mg/kg given either po or ip): very significantly reduced
- Ascites (mL) Mean ([6]; Experiment 3, 40 mg/kg i.p. qd, Day 5): 3.0 mL
- Ascites (mL) Mean ([6]; Experiment 3, 40 mg/kg oral, bid, Day 5): 3.7 mL
